Assays:
Format in all cases: in vivo
Plutella xylostella = test: whole plant or invertebrate; details: 144 h, Chinese cabbage seedlings with laid eggs dipped about 30 seconds, 6 days after dip treatment, criteria of Test Example 1, read-out: insecticidal efficacy (corrected mortality rate)
Haemonchus contortus = test: Larval motility assay on Haemonchus contortus; details: 96 h, L1 stage larvae, 4 days, relative to DMSO only, read-out: percent motility inhibition
Procedure: Larval Motility Assay on Haemonchus contortus
DMSO diluted solutions of various compounds of the present invention were added at the final concentration of 50 ppm to the wells of a 96-well plate containing a predetermined conditioned medium. Twenty L1 stage larvae of H. contortus were introduced into each well of the 96-well plate. The plate was allowed to stand for 4 days, and then larval motility was examined. The percent motility inhibition in the wells of each treatment was calculated relative to the wells of treatment with DMSO only.

Ctenocephalides felis = test: whole plant or invertebrate; details: 50 ppm in bovine blood, oral via feeder, adults, following day, read-out: mortality rate
Laodelphax striatellus = test: whole plant or invertebrate; details: 192 h, rice seedlings dipped 30 seconds, 3rd-instar larvae, 8 days after inoculation, criteria of Test Example 1, read-out: insecticidal efficacy (corrected mortality rate)
Rhipicephalus sanguineus = test: Assay for transdermal parasiticidal activity against nymphs of Rhipicephalus sanguineus; details: 100 ppm applied to inside of sample bottles, two days later
Excerpt: DMSO diluted solutions of various compounds of the present invention were individually diluted to the final concentration of 100 ppm with an acetone/triton mixture and applied to the inside of vented sample bottles. After overnight drying, ten nymphs of R. sanguineus were introduced into each bottle, and the mortality rate was examined two days later. Aberrant adults were regarded as the dead.

Dirofilaria immitis = test: Larval motility assay on Dirofilaria immitis; details: 72 h, L1 stage larvae, 3 days, relative to DMSO only, read-out: percent motility inhibition
Procedure: Larval Motility Assay on Dirofilaria immitis
Five hundred L1 stage larvae of D. immitis were diluted in a predetermined conditioned medium and introduced into each well of a 96-well plate. DMSO diluted solutions of various compounds of the present invention were added at the final concentration of 50 ppm to the wells of the 96-well plate. The plate was allowed to stand for 3 days, and then larval motility was examined. The percent motility inhibition in the wells of each treatment was calculated relative to the wells of treatment with DMSO only.

Row | Structure (SMILES) | mortality at 500 ppm (Plutella xylostella) [%] | inhibition at 50 ppm (Haemonchus contortus) [%] | mortality at 50 ppm (Ctenocephalides felis) [%] | mortality at 500 ppm (Laodelphax striatellus) [%] | parasiticidal activity (mortality rate) (Rhipicephalus sanguineus) | inhibition at 50 ppm (Dirofilaria immitis) [%]
1 | CCS(=O)(=O)c1cc(-c2noc(C3(C(F)(F)F)CC3)n2)cnc1-c1nc2cc(C(F)(F)F)cnc2n1C [Compound 1-4, 3-(5-ethylsulfonyl-6-(3-methyl-6-trifluoromethyl-3H-imidazo [4,5-b]pyridin-2-yl)pyridin-3-yl)-5-(1-trifluoromethylcyclopropyl)-1,2,4-oxadiazole] | 100 | ≥ 50 | ≥ 50 | 100 | parasiticidal activity | ≥ 50
2 | CCS(=O)(=O)c1cc(-c2noc(C3CC3C)n2)cnc1-c1nc2cc(C(F)(F)F)cnc2n1C (stereo not drawn) [Compound 1-6, 3-(5-ethylsulfonyl-6-(3-methyl-6-trifluoromethyl-3H-imidazo[4,5-b]pyridin-2-yl)pyridin-3-yl)-5-(2-methylcyclopropyl)-1,2,4-oxadiazole] | 100 | ≥ 50 |  | 100 |  | ≥ 50
3 | CCS(=O)(=O)c1cc(-c2noc(C3(C(F)(F)F)CC3)n2)cnc1-c1nc2cc(C(F)(F)F)ncc2n1C [Compound 1-7] | 100 | ≥ 50 | ≥ 50 | 100 |  | ≥ 50
4 | CCS(=O)(=O)c1cc(-c2noc(C3(c4ccccc4)CC3)n2)cnc1-c1nc2cc(C(F)(F)F)cnc2n1C [Compound 1-5] | 100 | ≥ 50 |  | 100 | parasiticidal activity | ≥ 50
5 | CCS(=O)(=O)c1cc(-c2noc(C3(C(F)(F)F)CC3)n2)cnc1-c1nc2cc([S+]([O-])C(F)(F)F)ccc2n1C (stereo not drawn) [Compound 1-8] | 100 |  |  | 100 |  | 
6 | CCS(=O)(=O)c1cc(-c2noc(C3(C)CC3)n2)cnc1-c1nc2cc(C(F)(F)F)cnc2n1C [Compound 1-2] | 100 | ≥ 50 | ≥ 50 | 100 |  | ≥ 50
